We go through one substance from patent US8110655B2, “Method to promote hair growth and/or delay or treat hair loss by administering a TGF-β antagonist or inhibitor” (Auxagen, Inc., priority 2006, dated 2012).

Where no end group is shown, it is not given here. PEG = not defined here

For experiment [1], the system named is mink lung epithelial cells. Kind of experiment: Block of TGF-β-induced growth inhibition / DNA synthesis response. In kind it is cell-based. The source says: (§1) By “treating or preventing alopecia” is meant the ability to cure, reduce or prevent one or more clinical symptoms of alopecia, including, but not limited to, hair loss, cornification, scaling, uneven thickness, persistent itch, inflammation, and rapid epithelial cell turnover in the skin. Treating alopecia also includes the promotion of hair growth at the site of the hair loss. The methods of the invention also encompass promotion or stimulation of hair growth in general (e.g. to thicken naturally thin hair). […] It was also discovered that at least four consecutive amino acids comprising W(or R)XXD (wherein X is any amino acid) motif in the sequences, determines their potencies and that they block TGF-β-induced growth inhibition and TGF-β-induced expression of PAI-1 in mink lung epithelial cells and other cell types (U.S. Pat. No. 6,500,920 issued Dec. 31, 2002). As was previously disclosed by the inventors, such peptides are effective in inhibiting, ameliorating or reversing the effects of TGF-β in biological systems including but not limited to reducing scarring wounds, to prevent lung injury in adult respiratory distress syndrome (ARDS), and injuries of other tissues caused by pharmacological agents (e.g. bladder injury caused by cyclophosphamide). […]

In experiment [2] the test system is TGF-β receptors in mink lung epithelial cells. Kind of experiment: Inhibition of labeled TGF-β binding to TGF-β receptors in mink lung epithelial cells. The settings on record: screen of seven pentacosapeptides.
Description: as §1

In experiment [3] the test system is partial-thickness pig skin burn wounds. Kind of experiment: Partial-thickness porcine burn wound outcomes. In kind it is in vivo. The procedure:
Animals were sedated with Talazine® ([…] Zolazepam, Fort Dodge Lab, Fort Dodge, Iowa) 5 mg/kg IM. The pigs were then intubated endotracheally and maintained under a surgical plane of anesthesia with isoflurane 0.5-2.5% in room air. The flank and back hair was clipped with hair clippers and the skin was scrubbed with a povidine iodine solution. Standardized partial thickness burns were created on the animals' backs and flanks by applying a 2.5 cm by 2.5 cm, 150 gram aluminum bar preheated in hot water to 80° C. The heated bar was wiped dry just prior to application to prevent water droplets from creating a steam burn on the skin. The bar was then placed at a vertical position perpendicular to the skin's surface and applied for a period of 20 seconds with all pressure supplied by gravity. […] In order to simulate burn blister debridement and enhance the absorption of the topical agents, the necrotic epidermis was gently removed by rubbing the burn with dry gauze. Removal of the necrotic epidermis results in delayed reepithelialization, and increased scar formation^17. Twenty burns were inflicted on each of 2 pigs (evenly distributed between both side of the pigs), for a total of 40 burns. The agent used in the studies is PEG-β1^25 (SEQ ID NO: 8) This particular peptide was chosen after screening seven pentacosapeptides whose amino acids overlap and cover most of the human TGF-β1 molecule, the monomer of which has 112 amino acid residues. […] Furthermore, the chosen peptide was also shown to block the cellular responses to TGF-β1 such as DNA synthesis and transcriptional activation of PAI-1. […] TGF-β peptantagonist PEG-β1^25 in PBS was mixed with Sterile IntraSite gel from Smith and Nephew Medical, Ltd. (UK) at a ratio of 1:3 (v/v). The pigs were randomized to treatment with topical PEG-β1^25 peptantagonist (SEQ ID NO: 8) or its vehicle (carboxy methylcellulose, IntraSite Gel, Smith and Nephew, Largo, Fla.) immediately after injury and at days 3, 5, 7, 10, 14, 18, 21, and 25. A thin layer of the topical treatment was applied with a sterile metal spatula. Group randomization order was determined by drawing unlabeled forms from an opaque container. After applying the topical therapy, the burns were covered with dry non-adherent gauze ([…] Company, Mansfield, Mass.). The burned areas were then covered with a gauze bandage roll (Conform®), Kendall Healthcare Products Company, Mansfield, Mass.) and an adhesive elastic bandage (Elastoplast®, Beiersdorf-Jobst, Inc., Rutherford College, N.C.). The adhesive dressing was secured to the skin at a distance from the burns with skin staples. Animals were observed frequently for signs of pain or discomfort and treated with IM buprenorphine 0.01 mg/kg as needed. Dressing changes were performed with each application of the topical agents. At each dressing change all gauze dressings were removed and the wounds were observed and the study agent was reapplied. All burns were then re-covered with non-adherent gauze and elastic wrap as previously described. Full thickness 4-mm punch biopsies (Miltex Instrument Company Inc., Lake Success, N.Y.) were taken after 7, 10, and 14 days for blinded histopathological evaluation by a board-certified dermatopathologist masked to treatment assignment. The entire wound was excised at 28 days and submitted for histological evaluation. Digital photos were taken prior to biopsy to determine the presence of wound contraction defined as an hourglass like shape. Histopathological studies were done on formalin-fixed, alcohol-dehydrated, xylene-cleared, paraffin-embedded, hematoxylin and eosin stained 5 μm sections using conventional microscopy. The primary outcome was the percent of wounds healing with wound contraction. Secondary outcomes were percent reepithelialization, percent wound infection, and the percent of wounds with scars extending through the entire thickness of the dermis. […]

A further experiment concerns PAI-1. Kind of experiment: Block of TGF-β-induced expression / transcriptional activation of PAI-1. In kind it is cell-based, mink.
Description: as §1

Where [4] appears, read: day 28, of 20 burns, full thickness scars.

With “PEG-β1^25: β1^25 (SEQ ID NO: 8) pegylated at the N-terminal alpha-amino group and at the epsilon-amino group ({PEG}-ANFSLGPSPYIWSLDTQYSK(PEG)VLALY; reading uncertain; listed as Homo Sapiens)”, the “block of cellular response to TGF-β1: DNA synthesis” value in experiment [1] is “block”. In experiment [2], the “inhibition of binding of labeled TGF-β1 to its receptor” value is “completely inhibited”. Also, in experiment [3] (day 7, 20 burns), the “Percent wound reepithelialization, day 7” value is on record as 14.2 (28.8) %. Also, the “Percent wound reepithelialization, day 10” value in experiment [3] (day 10, 20 burns) is on record as 46.3 (44.4) %. Moreover, in experiment [3] (day 14, 20 burns), the “Percent wound reepithelialization, day 14” value is listed as 91.9 (25.7) %. Also, in experiment [3] (day 14, of 20 burns), the “% wounds completed reepithelialized, day 14” value was 90% and the “No. wounds completed reepithelialized, day 14” value amounted to 18. For the same substance, in experiment [3] (day 28, of 20 burns), the “% contracted wounds, day 28” value worked out at 35% and the “No. contracted wounds, day 28” value came out at 7. Further, in experiment [3] (setting [4]), the “% deep scars, day 28” value is 10% and the “No. deep scars, day 28” value amounted to 2. Moreover, in experiment [3] (partial-thickness burn, topical gel), the “hair growth in treated wounds” value was “exhibited hair growth”. Besides, the “Mean Difference (95% CI) in percent wound reepithelialization, day 7” value in experiment [3] (versus control vehicle, day 7) is recorded as 7.9 (−8.2-24.1). In addition, the “Mean Difference (95% CI) in percent wound reepithelialization, day 10” value in experiment [3] (versus control vehicle, day 10) is given as 20.9 (−6.1-48.0). In experiment [3] (versus control vehicle, day 14), the “Mean Difference (95% CI) in percent wound reepithelialization, day 14” value is listed as 19.5 (−2.5-41.5). For the same substance, the “block of cellular response to TGF-β1: transcriptional activation of PAI-1” value in the experiment on PAI-1 is on record as “block”.
